In general, solubility refers to the dissolved amount per volume that the medium holds.

The values below come from US20250382344A1, “Soluble GLP1/GIP/NPY2 Receptor Triple Agonists” (Boehringer Ingelheim International GmH, priority 2024, published 2025).

Where two headings read alike, the source gives them in different places. *1 amine or outer side, *2 acyl side, *3 side chain or, on linkers, in order; H or OH if unused. Where no end group is shown, it is not given here. Side-chain parts run from the residue outwards. [ ]: non-standard residue; d: D form. The star is where a group is joined. C18 diacid = O=C(O)CCCCCCCCCCCCCCCCC(=O)*; γGlu = O=C(O)[C@H](CCC(=O)[*:2])N[*:1]; NMeQ = CN[C@@H](CCC(N)=O)C(=O)O; Aib = CC(C)(N)C(=O)O

For one data set, the target named is T1, hGIPR (Homo sapiens, UniProt P48546).
T1 construct: expressed in transfected cells; host or cells: CHO CRE-luciferase reporter cells
T1 sequence (P48546 22-466): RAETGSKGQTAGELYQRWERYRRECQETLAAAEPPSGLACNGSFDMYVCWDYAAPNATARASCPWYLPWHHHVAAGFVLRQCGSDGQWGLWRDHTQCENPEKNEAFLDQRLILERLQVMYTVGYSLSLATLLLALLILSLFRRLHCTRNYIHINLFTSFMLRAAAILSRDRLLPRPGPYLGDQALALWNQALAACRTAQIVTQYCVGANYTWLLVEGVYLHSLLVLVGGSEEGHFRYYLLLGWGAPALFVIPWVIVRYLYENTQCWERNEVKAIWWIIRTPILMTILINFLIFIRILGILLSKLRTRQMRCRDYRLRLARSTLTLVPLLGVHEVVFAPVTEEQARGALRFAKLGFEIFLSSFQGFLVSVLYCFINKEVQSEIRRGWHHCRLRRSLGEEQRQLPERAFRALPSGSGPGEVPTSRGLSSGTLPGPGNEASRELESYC
Description: hGIPR CreLuc assay in 0.5% and 100% plasma (CHO CRE-luciferase reporter cells). It is filed as cell-based. A general note: Reporter assays use an easily measured gene product as a stand-in for the process of interest.

Data set [1] in a line: Solubility in 0.1 M phosphate buffer at pH 7. Type of data set: physicochemical. Conditions: 0.1 M phosphate buffer at pH 7, 10 mg/mL final peptide concentration, shaking 2 hours at room temperature, peptides as TFA-salts, measured sample pH 6.5-7.0.
Data set [2] addresses T2, human neuropeptide Y2 receptor (human, UniProt P49146 1-381).
T2 sequence (looked up): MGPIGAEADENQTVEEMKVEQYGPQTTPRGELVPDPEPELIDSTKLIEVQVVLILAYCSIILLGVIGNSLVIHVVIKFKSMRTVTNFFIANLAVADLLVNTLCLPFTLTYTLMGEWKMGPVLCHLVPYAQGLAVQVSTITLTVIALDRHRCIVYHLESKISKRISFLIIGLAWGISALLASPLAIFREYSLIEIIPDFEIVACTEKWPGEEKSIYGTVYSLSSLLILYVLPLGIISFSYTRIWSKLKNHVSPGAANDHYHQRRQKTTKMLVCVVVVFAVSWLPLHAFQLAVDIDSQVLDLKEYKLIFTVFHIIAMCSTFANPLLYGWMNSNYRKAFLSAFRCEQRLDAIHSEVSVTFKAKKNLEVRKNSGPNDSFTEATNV
Description: cell-based or functional assay.

[3] abbreviates: 0.5% human plasma, read-out: hGIPR 0.5% hP.

Turning to `CC[C@H](C)[C@H](NC(=O)[C@H](CC(C)C)NC(=O)[C@H](Cc1c[nH]cn1)NC(=O)[C@H](CCCNC(=N)N)NC(=O)[C@@H](NC(=O)[C@H](Cc1ccccc1)NC(=O)[C@H](CCC(=O)O)NC(=O)C(C)(C)NC(=O)[C@H](CCC(N)=O)NC(=O)[C@H](C)NC(=O)[C@H](CCC(N)=O)NC(=O)[C@H](CCCCN)NC(=O)[C@H](CCC(=O)O)NC(=O)[C@H](CC(C)C)NC(=O)C(C)(C)NC(=O)[C@@H](NC(=O)[C@H](CO)NC(=O)[C@H](Cc1ccc(O)cc1)NC(=O)[C@H](CC(=O)O)NC(=O)[C@H](CO)NC(=O)[C@@H](NC(=O)[C@H](Cc1ccccc1)NC(=O)[C@@H](NC(=O)CNC(=O)[C@H](CCC(=O)O)NC(=O)C(C)(C)NC(=O)[C@@H](N)Cc1ccc(O)cc1)[C@@H](C)O)[C@@H](C)O)[C@@H](C)CC)C(C)C)C(=O)N[C@@H](CC(N)=O)C(=O)N[C@@H](CCCCNC(=O)[C@@H](N)CCCCNC(=O)CC[C@H](NC(=O)CC[C@H](NC(=O)CC[C@H](NC(=O)CC[C@H](NC(=O)CC[C@H](NC(=O)CC[C@H](NC(=O)CCCCCCCCCCCCCCCCCCC(=O)O)C(=O)O)C(=O)O)C(=O)O)C(=O)O)C(=O)O)C(=O)O)C(=O)NC(C)(C)C(=O)N[C@H](C(=O)N[C@@H](CCCNC(=N)N)C(=O)N[C@@H](CCC(N)=O)C(=O)N[C@@H](CCCNC(=N)N)C(=O)N[C@@H](Cc1ccc(O)cc1)C(N)=O)[C@@H](C)O` [Compound 149, Y-Aib-E-G-T-F-T-S-D-Y-S-I-Aib-L-E-K-Q-A-Q-Aib-E-F-V-R-H-L-I-N-K(1,3)-Aib-T-R-Q-R-Y-NH2.C20DA-gGlu-gGlu-gGlu-gGlu-gGlu-gGlu-eLys(1,2)], the EC50 on hGIPR (setting [3]) came to 600 pM. In addition, in data set [1] (read-out: Solubility), the solubility came out at 4900 µg/mL.
Take `CC[C@H](C)[C@H](NC(=O)[C@H](CC(C)C)NC(=O)[C@H](Cc1c[nH]cn1)NC(=O)[C@H](CCCNC(=N)N)NC(=O)[C@@H](NC(=O)[C@H](Cc1ccccc1)NC(=O)[C@H](C)NC(=O)C(C)(C)NC(=O)[C@H](CCC(N)=O)NC(=O)[C@H](C)NC(=O)[C@H](CCC(N)=O)NC(=O)[C@H](CCC(=O)O)NC(=O)[C@H](CC(=O)O)NC(=O)[C@H](CC(C)C)NC(=O)C(C)(C)NC(=O)[C@@H](NC(=O)[C@H](CO)NC(=O)[C@H](Cc1ccc(O)cc1)NC(=O)[C@H](CC(=O)O)NC(=O)[C@H](CO)NC(=O)[C@@H](NC(=O)[C@H](Cc1ccccc1)NC(=O)[C@@H](NC(=O)CNC(=O)[C@H](CCC(=O)O)NC(=O)C(C)(C)NC(=O)[C@@H](N)Cc1ccc(O)cc1)[C@@H](C)O)[C@@H](C)O)[C@@H](C)CC)C(C)C)C(=O)N[C@@H](CC(N)=O)C(=O)N[C@@H](CCCCNC(=O)[C@@H](N)CCCCNC(=O)[C@@H](N)CCCCNC(=O)CC[C@H](NC(=O)CC[C@H](NC(=O)CC[C@H](NC(=O)CC[C@H](NC(=O)CC[C@H](NC(=O)CCCCCCCCCCCCCCCCCCC(=O)O)C(=O)O)C(=O)O)C(=O)O)C(=O)O)C(=O)O)C(=O)NC(C)(C)C(=O)N[C@H](C(=O)N[C@@H](CCCNC(=N)N)C(=O)N[C@@H](CCC(N)=O)C(=O)N[C@@H](CCCNC(=N)N)C(=O)N[C@@H](Cc1ccc(O)cc1)C(N)=O)[C@@H](C)O` [Compound 155, Y-Aib-E-G-T-F-T-S-D-Y-S-I-Aib-L-D-E-Q-A-Q-Aib-A-F-V-R-H-L-I-N-K(1,3)-Aib-T-R-Q-R-Y-NH2.C20DA-gGlu-gGlu-gGlu-gGlu-gGlu-eLys-eLys(1,2)]: on hGIPR (setting [3]), the EC50 was determined as 700 pM. The solubility at 2 h in data set [1] came out at 8900 µg/mL.
Taken in the same sequence, the figures for `CC[C@H](C)[C@H](NC(=O)[C@H](CC(C)C)NC(=O)[C@H](Cc1c[nH]cn1)NC(=O)[C@H](CCCNC(=N)N)NC(=O)[C@@H](NC(=O)[C@H](Cc1ccccc1)NC(=O)[C@H](C)NC(=O)C(C)(C)NC(=O)[C@H](CCC(N)=O)NC(=O)[C@H](C)NC(=O)[C@H](CCC(N)=O)NC(=O)[C@H](CCCCN)NC(=O)[C@H](CCC(=O)O)NC(=O)[C@H](CC(C)C)NC(=O)C(C)(C)NC(=O)[C@@H](NC(=O)[C@H](CO)NC(=O)[C@H](Cc1ccc(O)cc1)NC(=O)[C@H](CC(=O)O)NC(=O)[C@H](CO)NC(=O)[C@@H](NC(=O)[C@H](Cc1ccccc1)NC(=O)[C@@H](NC(=O)CNC(=O)[C@H](CCC(=O)O)NC(=O)C(C)(C)NC(=O)[C@@H](N)Cc1ccc(O)cc1)[C@@H](C)O)[C@@H](C)O)[C@@H](C)CC)C(C)C)C(=O)N[C@@H](CC(N)=O)C(=O)N[C@@H](CCCCNC(=O)[C@@H](N)CCCCNC(=O)CC[C@H](NC(=O)CC[C@H](NC(=O)CC[C@H](NC(=O)CC[C@H](NC(=O)CC[C@H](NC(=O)CC[C@H](NC(=O)CCCCCCCCCCCCCCCCC(=O)O)C(=O)O)C(=O)O)C(=O)O)C(=O)O)C(=O)O)C(=O)O)C(=O)N[C@@H](C)C(=O)N[C@H](C(=O)N[C@@H](CCCNC(=N)N)C(=O)N[C@@H](CCC(N)=O)C(=O)N[C@@H](CCCNC(=N)N)C(=O)N[C@@H](Cc1ccc(O)cc1)C(N)=O)[C@@H](C)O` [Compound 159, Y-Aib-E-G-T-F-T-S-D-Y-S-I-Aib-L-E-K-Q-A-Q-Aib-A-F-V-R-H-L-I-N-K(1,3)-A-T-R-Q-R-Y-NH2.C18DA-gGlu-gGlu-gGlu-gGlu-gGlu-gGlu-eLys(1,2)] were 200 pM and 9600 µg/mL.
Taken in the same sequence, the figures for `CC[C@H](C)[C@H](NC(=O)[C@H](CC(C)C)NC(=O)[C@H](Cc1c[nH]cn1)NC(=O)[C@H](CCCNC(=N)N)NC(=O)[C@@H](NC(=O)[C@H](Cc1ccccc1)NC(=O)[C@H](C)NC(=O)C(C)(C)NC(=O)[C@H](CCC(N)=O)NC(=O)[C@H](C)NC(=O)[C@H](CCC(N)=O)NC(=O)[C@H](CCCCN)NC(=O)[C@H](CCC(=O)O)NC(=O)[C@H](CC(C)C)NC(=O)C(C)(C)NC(=O)[C@@H](NC(=O)[C@H](CO)NC(=O)[C@H](Cc1ccc(O)cc1)NC(=O)[C@H](CC(=O)O)NC(=O)[C@H](CO)NC(=O)[C@@H](NC(=O)[C@H](Cc1ccccc1)NC(=O)[C@@H](NC(=O)CNC(=O)[C@H](CCC(=O)O)NC(=O)C(C)(C)NC(=O)[C@@H](N)Cc1ccc(O)cc1)[C@@H](C)O)[C@@H](C)O)[C@@H](C)CC)C(C)C)C(=O)N[C@@H](CC(N)=O)C(=O)N[C@@H](CCCCNC(=O)CC[C@H](NC(=O)CC[C@H](NC(=O)CC[C@H](NC(=O)[C@@H](N)CCCCNC(=O)CC[C@H](NC(=O)CC[C@H](NC(=O)CC[C@H](NC(=O)CCCCCCCCCCCCCCCCC(=O)O)C(=O)O)C(=O)O)C(=O)O)C(=O)O)C(=O)O)C(=O)O)C(=O)NC(C)(C)C(=O)N[C@H](C(=O)N[C@@H](CCCNC(=N)N)C(=O)N[C@@H](CCC(N)=O)C(=O)N[C@@H](CCCNC(=N)N)C(=O)N[C@@H](Cc1ccc(O)cc1)C(N)=O)[C@@H](C)O` [Compound 168, Y-Aib-E-G-T-F-T-S-D-Y-S-I-Aib-L-E-K-Q-A-Q-Aib-A-F-V-R-H-L-I-N-K(1,3)-Aib-T-R-Q-R-Y-NH2.C18DA-gGlu-gGlu-gGlu-eLys-gGlu-gGlu-gGlu(1,2)] were 200 pM and 8200 µg/mL.
In the case of `CC[C@H](C)[C@H](NC(=O)[C@H](CC(C)C)NC(=O)[C@H](Cc1c[nH]cn1)NC(=O)[C@H](CCCNC(=N)N)NC(=O)[C@@H](NC(=O)[C@H](Cc1ccccc1)NC(=O)[C@H](C)NC(=O)C(C)(C)NC(=O)[C@H](CCC(N)=O)NC(=O)[C@H](C)NC(=O)[C@H](CCC(N)=O)NC(=O)[C@H](CCCCN)NC(=O)[C@H](CCC(=O)O)NC(=O)[C@H](CC(C)C)NC(=O)C(C)(C)NC(=O)[C@@H](NC(=O)[C@H](CO)NC(=O)[C@H](Cc1ccc(O)cc1)NC(=O)[C@H](CC(=O)O)NC(=O)[C@H](CO)NC(=O)[C@@H](NC(=O)[C@H](Cc1ccccc1)NC(=O)[C@@H](NC(=O)CNC(=O)[C@H](CCC(=O)O)NC(=O)C(C)(C)NC(=O)[C@@H](N)Cc1ccc(O)cc1)[C@@H](C)O)[C@@H](C)O)[C@@H](C)CC)C(C)C)C(=O)N[C@@H](CC(N)=O)C(=O)N[C@@H](CCCCNC(=O)CCCCCNC(=O)CC[C@H](NC(=O)CCCCCNC(=O)CC[C@H](NC(=O)CC[C@H](NC(=O)CC[C@H](NC(=O)CC[C@H](NC(=O)CCCCCCCCCCCCCCCCCCC(=O)O)C(=O)O)C(=O)O)C(=O)O)C(=O)O)C(=O)O)C(=O)NC(C)(C)C(=O)N[C@H](C(=O)N[C@@H](CCCNC(=N)N)C(=O)N[C@@H](CCC(N)=O)C(=O)N[C@@H](CCCNC(=N)N)C(=O)N[C@@H](Cc1ccc(O)cc1)C(N)=O)[C@@H](C)O` [Compound 175, Y-Aib-E-G-T-F-T-S-D-Y-S-I-Aib-L-E-K-Q-A-Q-Aib-A-F-V-R-H-L-I-N-K(1,3)-Aib-T-R-Q-R-Y-NH2.C20DA-gGlu-gGlu-gGlu-gGlu-AHX-gGlu-AHX(1,2)], the EC50 on hGIPR (setting [3]) came to 200 pM; on hGIPR (100% human plasma, read-out: hGIPR 100% hP) it was 5600 pM. Also, the solubility at 2 h in data set [1] stood at 8400 µg/mL.
Consider Y[Aib]EGTFTSDYSI[Aib]LEKQAQ[Aib]AFVRHLINK([γGlu-γGlu-γGlu-γGlu-γGlu-γGlu-C18 diacid])[Aib]TR[NMeQ]RY-NH2 [Compound 2], for which, in data set [2], the “EC50, CreLuc reporter, 0.5% hP” value turned out to be 89900 pM and the “EC50, CreLuc reporter, 100% hP” value is 258000 pM.
